3 substances from paper PMC3526141 (Bioorganic & medicinal chemistry letters, 2012) can be followed below.

pIC50: −log10 of the molar value.

Broadly, the pIC50 is the negative decadic logarithm of the IC50, by convention in mol/L.

The experiment deals with Prostate-specific membrane antigen (PSMA) (Homo sapiens, UniProt Q04609). The experiment is described as follows: inhibition of purified PSMA enzymatic activity. Type of experiment: biochemical.
Chain of Prostate-specific membrane antigen (PSMA) (Q04609 whole entry): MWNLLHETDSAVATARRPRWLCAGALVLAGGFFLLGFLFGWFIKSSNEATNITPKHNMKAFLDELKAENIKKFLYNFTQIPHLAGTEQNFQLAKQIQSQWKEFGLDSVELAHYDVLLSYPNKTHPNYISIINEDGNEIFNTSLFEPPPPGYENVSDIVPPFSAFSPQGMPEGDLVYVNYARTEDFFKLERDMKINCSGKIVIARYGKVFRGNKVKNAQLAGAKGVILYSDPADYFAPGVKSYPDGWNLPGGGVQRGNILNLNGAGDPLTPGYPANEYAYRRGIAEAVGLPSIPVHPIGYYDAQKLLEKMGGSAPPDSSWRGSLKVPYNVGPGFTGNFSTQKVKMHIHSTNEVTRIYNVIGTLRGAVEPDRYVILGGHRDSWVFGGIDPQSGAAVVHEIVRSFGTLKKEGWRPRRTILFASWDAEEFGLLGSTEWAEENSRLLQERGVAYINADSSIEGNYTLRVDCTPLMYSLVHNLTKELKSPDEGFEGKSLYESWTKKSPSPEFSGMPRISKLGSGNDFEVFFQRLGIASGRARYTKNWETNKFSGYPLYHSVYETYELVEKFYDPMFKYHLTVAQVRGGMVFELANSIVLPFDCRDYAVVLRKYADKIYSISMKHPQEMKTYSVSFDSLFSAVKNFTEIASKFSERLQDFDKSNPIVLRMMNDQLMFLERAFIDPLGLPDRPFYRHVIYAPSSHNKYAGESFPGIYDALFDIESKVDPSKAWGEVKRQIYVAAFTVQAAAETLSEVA
Turning to biotin-PEG4-CTT54, the pIC50 is 8.60.
The figure for biotin-CTT54 is 8.92; for biotin-PEG12-CTT54 it is 8.00.
